In PMC7377239, “Cardiovascular Effects of Polychlorinated Biphenyls and Their Major Metabolites” (Environmental Health Perspectives, 2020):
Read-outs that look alike come from different tables or passages of the source.

Columns and labels:
[1] = system: iCell endothelial cells (human iPSC-derived ECs); assay: Tube formation (tubulogenesis) assay in iCell endothelial cells, 18 h; type: cell-based; conditions: Homo sapiens, Endothelial cell; for activity at 0.1 µM: 0.10 µM
Procedure, shortened: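 Tube formation was measured by calcein AM imaging after overnight compound exposure (37°C, 0.5% DMSO vehicle) of human iPSC-derived ECs, 7,500/well, on reduced-growth-factor Geltrex in starvation medium. Vehicle-normalized data fitted to four-parameter logistic; POD set at one vehicle SD; without response, 100 μM taken as NOAEL.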

[2] = system: iCell endothelial cells (human iPSC-derived ECs); assay: High-content imaging cytotoxicity in iCell endothelial cells, 24 h; type: cell-based; conditions: Homo sapiens, Endothelial cell; for viability at 0.1 µM / activity at 0.1 µM: 0.10 µM
Procedure, shortened: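 Readouts were vehicle-normalised and fitted to a four-parameter logistic model. POD was set at one SD beyond 0.5% DMSO control means, and 100 µM was assigned when no response was seen. Cells were monolayers of iCell endothelial cells imaged after 24 h compound exposure using nuclear, mitochondrial and calcein dyes.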

[3] = iPSC-EC, 0.00 µM = 100.00, read-out: endo.mtl.18hr
[4] = iPSC-EC, 0.00 µM = 100.00, read-out: endo.tlps.18hr
[5] = iPSC-EC, 0.00 µM = 100.00, read-out: endo.tta.18hr
[6] = iPSC-EC, 0.00 µM = 100.00, read-out: endo.ttl.18hr
[7] = iPSC-EC, 0.00 µM = 100.00, read-out: endo.cyto.24hr
[8] = iPSC-EC, 0.00 µM = 100.00, read-out: endo.mito.24hr
[9] = iPSC-EC, 0.00 µM = 100.00, read-out: endo.mitoint.24hr
[10] = iPSC-EC, 0.00 µM = 100.00, read-out: endo.nma.24hr
[11] = iPSC-EC, 0.00 µM = 100.00, read-out: endo.tc.24hrs

COc1cc(Cl)c(-c2cc(Cl)ccc2Cl)cc1Cl [4-OMe PCB52]
activity at 0.01 µM [1, 3]: 120% | activity at 0.01 µM [1, 4]: 104% | activity at 0.01 µM [1, 5]: 141% | activity at 0.01 µM [1, 6]: 150% | activity at 0.1 µM [1, 3]: 112% | activity at 0.1 µM [1, 4]: 113% | activity at 0.1 µM [1, 5]: 116% | activity at 0.1 µM [1, 6]: 123% | activity at 1 µM [1, 3]: 119% | activity at 1 µM [1, 4]: 114% | activity at 1 µM [1, 5]: 121% | activity at 1 µM [1, 6]: 132% | activity at 10 µM [1, 3]: 114% | activity at 10 µM [1, 4]: 131% | activity at 10 µM [1, 5]: 136% | activity at 10 µM [1, 6]: 142% | activity at 100 µM [1, 3]: 49.4% | activity at 100 µM [1, 4]: 15.9% | activity at 100 µM [1, 5]: 6.4% | activity at 100 µM [1, 6]: 8.34% | minimal effective concentration ([1]; iPSC-EC, 100.00 = highest concentration tested, read-out: endo.mtl.18hr POD): 52 µM | minimal effective concentration ([1]; iPSC-EC, 100.00 = highest concentration tested, read-out: endo.tlps.18hr POD): 56 µM | minimal effective concentration ([1]; iPSC-EC, 100.00 = highest concentration tested, read-out: endo.tta.18hr POD): 51.6 µM | minimal effective concentration ([1]; iPSC-EC, 100.00 = highest concentration tested, read-out: endo.ttl.18hr POD): 54.7 µM | viability at 0.01 µM [2, 7]: 104% | activity at 0.01 µM [2, 8]: 104% | activity at 0.01 µM [2, 9]: 88.9% | activity at 0.01 µM [2, 10]: 102% | viability at 0.01 µM [2, 11]: 104% | viability at 0.1 µM [2, 7]: 101% | activity at 0.1 µM [2, 8]: 101% | activity at 0.1 µM [2, 9]: 88% | activity at 0.1 µM [2, 10]: 102% | viability at 0.1 µM [2, 11]: 101% | viability at 1 µM [2, 7]: 104% | activity at 1 µM [2, 8]: 103% | activity at 1 µM [2, 9]: 84.8% | activity at 1 µM [2, 10]: 100% | viability at 1 µM [2, 11]: 104% | viability at 10 µM [2, 7]: 106% | activity at 10 µM [2, 8]: 106% | activity at 10 µM [2, 9]: 92.2% | activity at 10 µM [2, 10]: 99.7% | viability at 10 µM [2, 11]: 106% | viability at 100 µM [2, 7]: 53.2% | activity at 100 µM [2, 8]: 48.4% | activity at 100 µM [2, 9]: 74.5% | activity at 100 µM [2, 10]: 117% | viability at 100 µM [2, 11]: 56.6% | minimal effective concentration ([2]; iPSC-EC, 100.00 = highest concentration tested, read-out: endo.cyto.24hr POD): 43.5 µM | minimal effective concentration ([2]; iPSC-EC, 100.00 = highest concentration tested, read-out: endo.mito.24hr POD): 43.5 µM | minimal effective concentration ([2]; iPSC-EC, 100.00 = highest concentration tested, read-out: endo.mitoint.24hr POD): 100 µM | minimal effective concentration ([2]; iPSC-EC, 100.00 = highest concentration tested, read-out: endo.nma.24hr POD): 56.1 µM | minimal effective concentration ([2]; iPSC-EC, 100.00 = highest concentration tested, read-out: endo.tc.24hrs POD): 40.3 µM

COc1cc(Cl)c(-c2cc(Cl)ccc2Cl)cc1Cl [4-OMe-PCB 52, 4-methoxy-2,2′,5,5′-tetrachlorobiphenyl]
minimal effective concentration ([1]; endothelial cells (endo), tube formation mtl, 18 hr, read-out: POD endo.mtl.18hr): 52 µM | minimal effective concentration ([1]; endothelial cells (endo), tube formation tlps, 18 hr, read-out: POD endo.tlps.18hr): 56 µM | minimal effective concentration ([1]; endothelial cells (endo), tube formation tta, 18 hr, read-out: POD endo.tta.18hr): 51.6 µM | minimal effective concentration ([1]; endothelial cells (endo), tube formation ttl, 18 hr, read-out: POD endo.ttl.18hr): 54.7 µM | minimal effective concentration ([2]; endothelial cells (endo), cyto, 24 hr, read-out: POD endo.cyto.24hr): 43.5 µM | minimal effective concentration ([2]; endothelial cells (endo), mito, 24 hr, read-out: POD endo.mito.24hr): 43.5 µM | minimal effective concentration ([2]; endothelial cells (endo), mitoint, 24 hr, read-out: POD endo.mitoint.24hr): 100 µM | minimal effective concentration ([2]; endothelial cells (endo), nma, 24 hr, read-out: POD endo.nma.24hr): 56.1 µM | minimal effective concentration ([2]; endothelial cells (endo), tc, 24 hr, read-out: POD endo.tc.24hr): 40.3 µM
